Key:
[1] = biological target: NLuc::LmxCLK1 (Leishmania mexicana, UniProt E9AMP2); experiment: In-cell BRET target engagement in intracellular amastigotes expressing NLuc::LmxCLK1; assay type: cell-based
Procedure: L. mexicana (strain MNYC/BZ/62/M379) promastigotes were cultivated in medium 199 (M199) (Earle’s Salts - Gibco) supplemented with 10% (v/v) heat-inactivated fetal calf serum (HIFCS – Cultilab) and 1% Penicillin/Streptomycin solution (Sigma-Aldrich) at 26 °C. Phenotypic drug response assays in null mutant and point-mutation mutant lines were performed in HOMEM supplemented with 10% (v/v) heat-inactivated fetal calf serum (HIFCS – Gibco). THP-1 monocytes were differentiated in adherent macrophages with 50 ng of PMA for 72 h at 37 °C and 5% CO2 before infection with stationary phase promastigotes (ratio 10 promastigotes:1 macrophage) for 6 h, followed by washing to remove non-internalized Leishmania. Infected macrophages were incubated at 34 °C and 5% CO2 for 48 h in RPMI (Gibco) supplemented with 10% HIFCS and 1% Penicillin/Streptomycin solution.
in vitro BRET used purified NLuc-LmxCLK1 in Kinase Buffer (50 mM HEPES, 1 mM EGTA, 10 mM MgCl^2, 2 mM DTT and 0.01% Tween-20) aliquoted into 96-well plates (Greiner #655904). In cell BRET assays used engineered L. mexicana (promastigotes or intramacrophage amastigotes) expressing NLuc-LmxCLK1 in cell media aliquoted into 96-well plates (Greiner, #655083). For tracer titration experiments, BRET probes were serially diluted from 100% DMSO stocks – first in 100% DMSO to 100x final assay concentration, and then in Tracer Dilution Buffer (TDB - 12.5 mM HEPES, pH 7.5; 31.25% PEG 400) to 20x the final assay concentration. Serially diluted probes (5 µL) were added to 85 µL of cells in culture media or 85 µL of purified protein. Final well volumes were adjusted to 100 µL with sterile Opti-MEM™ I Reduced Serum Medium (Thermo-Scientific) – for wells containing cells; or Kinase Buffer - for wells containing purified protein. For tracer displacement assays, samples were prepared as above, but final volume was brought to 100 µL by addition of vehicle or serially-diluted test compounds. Final DMSO concentration in these assays was 1%. Plates were incubated for 30 min at 25 °C (purified protein and promastigotes) or 34 °C (intramacrophage amastigotes), and 50 µL of Promega cocktail containing furimazine and NLuc extracellular inhibitor (catalog #N2161) were added to each well. Light emissions at 460+10 nm (BRET donor) and at 610+20 nm (BRET acceptor) were sequentially recorded (integration time = 0.5 s, gain = 3600) using a luminometer (BMG LABTECH Clariostar or Biotek Synergy HT). BRET values are reported in milli-BRET (mBRET) units (mBU), obtained by dividing the acceptor luminescence by the donor luminescence and multiplying the result by a factor of 1,000. BRET values were converted to blank-corrected probe occupancies (%) according to equation [1]: (1) Probeoccupancy(%)=X−Z/Y−Z×100 where X = mBRET value in the presence of the test compound and the probe, Y = mBRET value in the presence of probe only, and Z = mBRET value in the absence of probe and test compound.

[2] = biological target: T1, LmxCLK1 (Leishmania mexicana, UniProt E9AMP2); experiment: Intact mass LC-MS for covalent adduct formation; assay type: binding; settings: 2 h incubation at room temperature, inhibitor:protein 3:1
T1 sequence (E9AMP2 1-422): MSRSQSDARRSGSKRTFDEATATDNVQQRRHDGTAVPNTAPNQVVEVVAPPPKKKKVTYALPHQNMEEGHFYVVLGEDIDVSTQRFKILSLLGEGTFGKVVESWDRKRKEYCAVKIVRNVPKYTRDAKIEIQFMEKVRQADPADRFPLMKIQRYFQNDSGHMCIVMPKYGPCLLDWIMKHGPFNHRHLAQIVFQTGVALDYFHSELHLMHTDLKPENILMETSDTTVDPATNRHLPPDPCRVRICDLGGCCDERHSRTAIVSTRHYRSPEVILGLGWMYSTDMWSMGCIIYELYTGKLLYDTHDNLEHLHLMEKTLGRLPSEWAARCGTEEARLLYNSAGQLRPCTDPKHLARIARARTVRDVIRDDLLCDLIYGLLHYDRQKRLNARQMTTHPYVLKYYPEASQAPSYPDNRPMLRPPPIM
Procedure: Samples were analyzed by LC-ESI-MS in a XEVO G2 Sx Q-ToF (Waters) at LACTAD-UNICAMP, Brazil. […]
where background is the background fluorescence obtained in the absence of enzyme (blank).
To determine IC50 values, the background-corrected HTRF ratio was plotted as a function of test compound concentration, and the data were fitted to the sigmoidal dose-response (variable slope) equation [2] available in GraphPad Prism (v. 9.1.0):
Signal ratio (665/620) = Plateau + Plateau)(* − Plateau’())($ [2] […]
where Hill = Hill slope describing the steepness of the curve and x = test compound concentration.
To obtain normalized enzymatic activity we used the background corrected HTRF ratio of enzymatic […]
and 0% enzyme activity, respectively.
To establish the contribution of compound pre-incubation to the IC50 assay, we pre-incubated WZ8040 with LmxCLK1 for 5, 10, 15 and 30 minutes at room temperature, prior to starting the phosphorylation reaction by adding ATP and the peptide substrate. The enzymatic reactions were carried following the procedures described above.
For fitting of kinact and KI values from endpoint pre-incubation IC50 data, we used the equation [3], first described by Krippendorff and colleagues:7 […]
IC"&(t) = k. […]
(CQMED clone ID LmxCLK1-cb001) and the two covalent inhibitors WZ8040 and WZ3146. […] Samples were analyzed by LC-ESI-MS in a XEVO G2 Sx Q-ToF (Waters) at LACTAD-UNICAMP, Brazil. […]

| SMILES | IC50 [1] [µM] | Lower potency in intracellular amastigotes ([1]; tracer displacement, versus promastigotes) | Covalent adduct formation with purified LmxCLK1 [2] |
| --- | --- | --- | --- |
| Cc1ccc(C(=O)Nc2ccc(CN3CCN(C)CC3)c(C(F)(F)F)c2)cc1C#Cc1cnc2[nH]ncc2c1 [GZD824] | 13 | ~ 3 fold | – |
| C=CC(=O)Nc1cccc(Oc2nc(Nc3ccc(N4CCN(C)CC4)cc3)ncc2Cl)c1 [WZ3146] | – | – | formation of covalent adducts |
| C=CC(=O)Nc1cccc(Sc2nc(Nc3ccc(N4CCN(C)CC4)cc3)ncc2Cl)c1 [WZ8040] | 7 | – | formation of covalent adducts |
